Results as given in US20260103730A1, “METHOD FOR RELEASING VIRAL VECTORS” (PCI Biotech AS, priority 2022, published 2026).

Tests used:
[1] = system: HEK293T cells; test: Genomic DNA leakage into supernatant by ddPCR (albumin primers); type: cell-based, human; details: TPCS2a 5 μg/mL 10 min, irradiation 5 minutes, 2 hours incubation
Method: (§1) 75-80% confluent HEK293T cells were incubated with 5 μg/mL TPCS2a or 0.5% Tween 20 in complete DMEM for 10 minutes followed by irradiation for 5 minutes (where indicated). Blue light irradiation/illumination was performed using LumiSource according to the manufacturer's protocol (PCI Biotech). A negative control of complete DMEM containing the TPCS2a solvent was used to control for solvent effects on cell lysis.
Following irradiation, the cells were incubated for 2 hours at 37° C. and 5% CO2, after which supernatants were collected. Cell debris (if any) was eliminated by centrifugation. Genomic DNA from all samples was quantified by ddPCR (Bio-Rad QX600) using primers targeting human albumin DNA.
Albumin DNA values were normalised to the negative control.

[2] = system: HEK293 cells; test: LDH release assay (leakage of cytosolic material); type: cell-based; details: 10 min, assessed after 2 hours
Method: HEK293 cells were incubated with either 0.5 μg/mL TPCS2a or 0.5% Tween 20 in serum-free DMEM. Alternatively, HEK293 cells were incubated with 50 μg/mL TPCS2a in 10% serum supplemented DMEM for 10 minutes. The cells were subsequently irradiated with blue light for 5 minutes or received no irradiation. Blue light irradiation/illumination was performed using LumiSource according to the manufacturer's protocol (PCI Biotech). The negative control (Neg. Ctrl) was either serum-free DMEM or 10% Fetal Bovine Serum (FBS) supplemented DMEM containing the TPCS2a solvent to control for the effect of solvents on LDH leakage. Background absorbance values of the LDH assay was assessed using DMEM with increasing concentrations of FBS at 1%, 5% and 10%.
LDH release was performed as a measure of cell lysis and release of cytosolic material using CyQUANT LDH Cytotoxicity Assay (Thermo Fisher Scientific) according to manufacturer's protocol. Cells were seeded in 48 well plates one day prior to treatments in 400 μL. The following day, treatments were given for 10 minutes at 37° C. 5% CO2, prior to 5 minutes illumination. Plates were subsequently incubated for 2 hours in an incubator (37° C. 5% CO2), then centrifuged for 5 minutes at 400×g, after which 50 μL supernatant from each sample was transferred to a 96 well plate for absorbance measurements according to kit instructions. 490 nm absorbance reflects LDH and 680 nm reflects absorbance background from the instrument. 490 nm absorbance minus 680 nm absorbance is directly proportional to the amount of LDH released into the medium.

[3] = system: Jurkat cells; test: Hoechst 33258 entry by flow cytometry as measure of cell death / pore formation; type: cell-based
Method: (§2) Jurkat cells were incubated with 0.1 ug/mL or 1 ug/mL fimaporfin (TPCS2a, tetraphenyl chlorin disulfonate) for 10 minutes in complete RPMI 1640 medium. Following irradiation, the cells were incubated for 48 hours at 37° C. and 5% CO2, after which several analyses of cell health were performed.
(§3) Blue light irradiation/illumination was performed using LumiSource according to the manufacturer's protocol (PCI Biotech)
Entry of Hoechst 33258 (Thermo Fisher Scientific) into cells was performed as a measure of cell death. When Hoechst 33258 enters cells, it binds to double-stranded DNA generating a strong fluorescent signal. Entry of the stain into the cells requires the presence of pores in the plasma membrane and is a late-stage measure of cell health, i.e. cell death. Hoechst 33258 staining and flow cytometry was performed according to the manufacturer's protocol (Thermo Fisher Scientific).

[4] = system: HEK293T cells; test: Release of AAV2 viral vectors from producer cells (ddPCR of DNase-resistant vg in supernatant); type: cell-based; details: adherent HEK293T, TPCS2a 5 μg/mL 10 min, blue light 5 minutes, supernatant 2 hours later
Method: 75-80% confluent HEK293T cells were triple transfected with Adeno-associated virus serotype 2 (AAV)-encoding plasmids (pHelper, AAV2 RepCap, and pscAAV-GFP plasmids) using polyethylenimine (PEI) in 12 well plates, resulting in AAV2 production. For each transfection, plasmids and PEI were added to complete DMEM to a total volume of 640 μL, followed by vortexing for 10 seconds and 15 minutes incubation at room temperature. Medium was removed from the HEK293T cells in 12 well plates, and replaced by the DMEM-plasmid-PEI mixture. Cells were incubated for three days at 37° C. and 5% CO2. Three days after transfection, cells were subjected to treatments (as described below) for 10 minutes in complete DMEM.
Treatments were: • a) Untransfected cells, no further treatment. • b) Transfected cells. Received photosensitiser solvent but no photosensitiser (to control for solvent effect on cell lysis). • c) Transfected cells. Incubated with 5 μg/mL TPCS2a (Fimaporfin) for 10 minutes. […]
Supernatants were harvested 2 hours later and cell debris (if any) was eliminated by centrifugation. DNase-resistant viral genome (vg) from all samples was quantified by digital droplet PCR amplification (Bio-Rad QX600) of DNase-resistant (i.e. viral capsid-encapsulated) DNA using primers targeting inverted terminal repeats. Viral vector yield was expressed as “vg/mL” (AAV vector genomes per millilitre).

[5] = system: HEK293T suspension cells; test: Photochemical lysis of suspension cells studied by microscopy; type: cell-based; details: 5 μg/mL 10 min + blue light 5 minutes, 2 hours after
Method: HEK293T suspension cells were treated with 5 μg/mL TPCS2a (fimaporfin) or fimaporfin solvent without photosensitiser (“Neg. Ctrl”) in complete DMEM for 10 minutes, followed by blue light illumination for 5 minutes (as described in Example 6). Hoechst 33258 was added to samples 2 minutes prior to imaging. Hoechst 33258 DNA stain is not readily cell penetrable, and therefore stains free DNA or DNA in cells with plasma membrane pores.
Cells were washed in PBS/1% FBS prior to imaging to remove unbound fimaporfin. Cells were imaged by light (Nomarski) microscopy and fimaporfin and Hoechst fluorescence by fluorescence microscopy after 10 minutes (i.e. prior to illumination) and 2 hours after illumination. Imaging was conducted as set out in Example 2.

[6] = system: HEK293 cells; test: Cellular morphology after photochemical treatment (Nomarski/fluorescence microscopy); type: cell-based; details: HEK293, 5 μg/mL 10 min
Method: HEK293 cells were incubated with 5 μg/mL TPCS2a complete DMEM for 10 minutes, followed by irradiation with blue light for 5 minutes. Blue light irradiation/illumination was performed using LumiSource according to the manufacturer's protocol (PCI Biotech). Cells were imaged by light (Nomarski) and fluorescence microscopy prior to illumination and 2 hours after illumination. Imaging was performed as described in Example 2.

[7] = system: Jurkat cells; test: MTS assay of metabolic activity/viability after TPCS2a and blue light; type: cell-based; details: 48 hours incubation
Method: as §2, §3
MTS metabolism was performed as a measure of metabolic activity and performed according the manufacturer's protocol (Promega).

[8] = system: Jurkat cells; test: Cell counting (Coulter Counter) as measure of cell growth; type: cell-based; details: higher dose (1 ug/mL) vs 0.1 ug/mL at corresponding irradiation times, 48 hours after irradiation
Method: as §2, §3
Cell counting was performed as a measure of cell growth using a Coulter Counter by Beckman Coulter according to the manufacturer's protocol. Counting was performed 48 hours after irradiation.

[9] = system: HEK293 cells; test: DNA leakage by Hoechst 33258 staining and microscopy, photochemical vs detergent lysis; type: cell-based; details: HEK293, TPCS2a 5 μg/mL or Tween 20 0.5%, 10 min, irradiation 5 minutes, 2 hours after
Method: as §1, with “HEK293 cells” for “75-80% confluent HEK293T cells”, “5 minutes.” for “5 minutes (where indicated).”, “cell morphology and” for “cell”
Hoechst 33258 stain was added to samples 2 minutes prior to imaging. Hoechst 33258 staining was performed according to the manufacturer's protocol (Thermo Fisher Scientific). The cells were imaged by light (Nomarski) and fluorescence microscopy prior to irradiation and 2 hours after irradiation. Imaging was performed as described in Example 2. Changes to cellular morphology were analysed visually.

Q: For “tetraphenyl chlorin disulfonate [TPCS2a]”, which “genomic DNA leakage into supernatant (ddPCR)” value [1] is on record?
A: The value was “does not cause the leakage of genomic DNA”.

Q: And the LDH release ([2]; HEK293, 10% FBS DMEM, TPCS2a 50 μg/mL, blue light 5 minutes)?
A: Its LDH release is “increased significantly”.

Q: What about the LDH release ([2]; HEK293, 10% FBS DMEM, TPCS2a 50 μg/mL, no irradiation) of the same substance?
A: Its LDH release is “comparable levels of LDH release to HEK293 cells treated with a negative control”.

Q: What about the LDH release ([2]; HEK293, serum-free DMEM, TPCS2a 0.5 μg/mL or Tween 20 0.5%, blue light 5 minutes) of the same substance?
A: Its LDH release is “increased significantly”.

Q: And the LDH release ([2]; HEK293, serum-free DMEM, TPCS2a 0.5 μg/mL or Tween 20 0.5%, no irradiation)?
A: The LDH release was “comparable levels of LDH release to HEK293 cells treated with a negative control”.

Q: What about the “cell death (Hoechst 33258 staining)” value ([3]; TPCS2a 0.1 μg/ml 10 min, various irradiation times) of the same substance?
A: Its value is “some cell death but only at longer irradiation times”.

Q: What about the “cell death (Hoechst 33258 staining)” value ([3]; TPCS2a 1 μg/ml 10 min, after 2 minutes of irradiation) of the same substance?
A: Its value is “significant cell death”.

Q: And the “release of AAV2 viral vectors into supernatant” value [4]?
A: The value was “releases non-enveloped viral vectors from producer cells”.

Q: What about the “DNA retention (Hoechst 33258 microscopy)” value [5] of the same substance?
A: Its value is “DNA is retained within the boundaries of the lysed cells”.

Q: What about the plasma membrane disruption [5] of the same substance?
A: Its plasma membrane disruption is “opens up the plasma membrane”.

Q: And the cellular morphology ([6]; absence of irradiation)?
A: Its cellular morphology is “do not exhibit changes to their cellular morphology”.

Q: What about the cellular morphology ([6]; blue light 5 minutes, 2 hours after illumination) of the same substance?
A: The cellular morphology was “dramatically altered cellular morphology and had shifted to a lytic phenotype”.

Q: What about the “cell viability (MTS absorbance)” value ([7]; TPCS2a 1 μg/ml 10 min, 4-5 minutes irradiation) of the same substance?
A: The value was “total loss of viability”.

Q: And the “cell viability (MTS absorbance)” value ([7]; TPCS2a 0.1 or 1 ug/mL 10 min, blue light 2-5 minutes)?
A: Its value is “reductions in viability”.

Q: What about the “cell density (cell counting)” value [8] of the same substance?
A: The value was “reduced cell density”.

Q: And the “DNA leakage (Hoechst 33258 microscopy)” value [9]?
A: The value was “DNA stays within the boundaries of the cell corpse”.
